The record followed here is US20150133434A1, “Compositions and Methods for Reactivating Latent Immunodeficiency Virus” (priority 2012, published 2015).

The structures appear in SMILES notation. “Also recorded” adds a separate entry of the source.

The subject of test [1] is latent DHIV-GFP, X4 virus in nonpolarized T helper cells. Briefly: Primary T-cell model of latency, ex vivo differentiated nonpolarized CD4+ T cells. Type of test: cell-based, HIV-1. To be noted: 96 h after compound addition; minor effect only at highest doses.
The subject of test [2] is HIV LTR promoter driving destabilized GFP in Jurkat cells. The experiment in a line: Single-cell time-lapse fluorescence microscopy of LTR-GFP Jurkat cells (two-state transcription model). It is filed as cell-based. How it is done: Lentiviral vectors expressing the LTR-GFP cassette in the absence of Tat were used to infect 5×10^5 Jurkat cells at a multiplicity of infection <0.1, resulting in 25,000-50,000 infected cells each presumably with a unique integration site. Cells were then sorted by FACS to isolate green fluorescent protein-labeled (GFP^+) cells and fluorescently imaged on glass-bottom dishes in RPMI 1640 with 10% fetal calf serum and 1% penicillin-streptomycin and 1 μM JQ1 at t=0 h for the treated population. The imaging took place in humidified conditions at 37° C. and 5% CO2 for 12-24 hours with a 40× (1.2 NA) oil-immersion objective on a Zeiss Observer Z1 microscope equipped with an automated linear-encoded X-Y stage. Image processing and cell tracking were performed in Matlab™ with an in-house algorithm (Weinberger et al. Nature Genet 2008; 40:466-70) and a single 12-hour experiment could generate up to 1000 single-cell trajectories for analysis.
For each trajectory, noise autocorrelation (Φ(t)) and magnitude (CV2) were calculated using an established noise processing algorithm (Weinberger et al. Nature Genet 2008; 40:466-70; Austin D W et al., Nature 2006; 439:608-11) A published theory (Simpson M L, et al. J Theor Biol 2004; 229:383-94; Cox C D, et al. Proc Natl Acad Sci USA 2008; 105:10809-14) of the two-state transcriptional bursting model yields analytical expressions for the autocorrelation of the noise, Φ(τ), and noise magnitude. Derivations and calculated burst size and frequency have been reported (Singh A, et al. Biophysical Journal 2010; 98:L32-L4). Exogenous JQ1 addition can change either mean fluorescence, variability of expression (defined by the coefficient of variation, CV), or both. Modeling of 2-state transcription enables the differentiation between modulations in transcriptional initiation (Dkon) or in the burst size (DT/koff).
To biophysically characterize the Tat-independent JQ1 effect on the HIV LTR, single-cell time-lapse fluorescence microscopy was performed on ˜2,000 Jurkat cells where each cell carried a different integration site of the LTR promoter driving a destabilized GFP reporter (FIG. 24A). Mean fluorescence intensity (MFI) and the magnitude of intensity fluctuations (i.e. the ‘noise’) were quantified for sub-clusters of polyclonal cells in response to JQ1 treatment (FIG. 24). The data was analyzed using an established two-state model of episodic transcription in which the LTR switches between a transcriptional OFF state, where RNA polymerase II is stalled, and a transcriptional ON state where elongation occurs and multiple mRNA transcripts are produced at a rate=T (FIG. 24B). In this model, promoter switching occurs with rates kon and koff which generates pulses or bursts of transcription.
To determine how JQ1 influences these biophysical parameters (koff, kon, T), changes in LTR MFI and noise (measured by the coefficient of variation, CV, which is defined as the standard deviation over the mean) were examined and compared to the untreated LTR (FIG. 24C, D). By qualifying MFI and CV in time-lapse trajectories, changes in both burst frequency (kon) and burst size, or the # of mRNA produced per activity pulse, (T/koff) can be determined.

For `Cc1sc2c(c1C)C(c1ccc(Cl)cc1)=N[C@@H](CC(=O)OC(C)(C)C)c1nnc(C)n1-2` [JQ1, tert-Butyl 2-((6S)-4-(4-chlorophenyl)-2,3,9-trimethyl-6H-thieno[3,2-f][1,2,4]triazolo[4,3-a][1,4]diazepin-6-yl)acetate], the “reversal of latency (GFP)” value in test [1] is listed as “minor activatory effect”. In test [2] (1 μM JQ1, average), the “delay in transcriptional initiation” value was approximately 50 min and the “increase of mRNAs per pulse of transcriptional activity” value was approximately 15 mRNAs per pulse. In test [2] (1 μM JQ1 vs untreated), the “LTR noise (coefficient of variation)” value was “increases”, the “average dwell time in the OFF state (1/kon)” value is on record as “increases”, the “mean fluorescence intensity (MFI)” value is recorded as “without a significant shift” and the “transcription burst size (T/koff)” value is “enhancement; also recorded: increases”.
